Columns and labels:
Format in all cases: in vivo
[1] = tested on: barnyardgrass (Echinochloa crus-galli); assay: Test A pre-/postemergence plant response
Method in brief: (§1)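 Greenhouse trial, ~10 days. Soil (loam/sand) sprayed preemergence after seeding; emerged plants (1–2 leaf, 2–10 cm) sprayed postemergence in parallel. Response = visual injury vs untreated control, 0–100.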

corn (Zea mays) = assay: Test A pre-/postemergence plant response
Method in brief: as §1

[2] = tested on: giant foxtail (Setaria faberii); assay: Test A pre-/postemergence plant response
Method in brief: as §1

[3] = tested on: large crabgrass (Digitaria sanguinalis); assay: Test A pre-/postemergence plant response
Method in brief: as §1

[4] = tested on: morningglory (Ipomoea spp.); assay: Test A pre-/postemergence plant response
Method in brief: as §1

[5] = tested on: pigweed (Amaranthus retroflexus); assay: Test A pre-/postemergence plant response
Method in brief: as §1

[6] = tested on: velvetleaf (Abutilon theophrasti); assay: Test A pre-/postemergence plant response
Method in brief: as §1

[7] = tested on: wheat (Triticum aestivum); assay: Test A pre-/postemergence plant response
Method in brief: as §1

[8] = tested on: barnyardgrass (Echinochloa crus-galli); assay: Test B flooded paddy test; settings: for Plant response rating, Flood, Barnyardgrass: 250 g ai/ha, flooded paddy test, visual rating on 0 to 100 scale (0 no effect, 100 complete control) after 13 to 15 days; for Plant response rating, Barnyardgrass: Flood (flooded paddy test), 13 to 15 days; for Barnyardgrass plant response rating: Flood, 31 g ai/ha, scale 0 to 100 (0 no effect, 100 complete control)
Method in brief: (§2)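 Flooded-pot test: water raised to 3 cm above soil when treating, compound put in the water, level unchanged thereafter. Plants were at 2 leaves. Readout after 13 to 15 days, visual, relative to controls; 0 signifies no effect and 100 complete control.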

[9] = tested on: ducksalad (Heteranthera limosa); assay: Test B flooded paddy test; settings: for Plant response rating, Flood, Ducksalad: 250 g ai/ha, flooded paddy test, visual rating on 0 to 100 scale (0 no effect, 100 complete control) after 13 to 15 days; for Plant response rating, Ducksalad: Flood (flooded paddy test), 13 to 15 days; for Ducksalad plant response rating: Flood, 31 g ai/ha, scale 0 to 100 (0 no effect, 100 complete control)
Method in brief: as §2

rice (Oryza sativa) = assay: Test B flooded paddy test; settings: for Plant response rating, Flood, Rice: 250 g ai/ha, flooded paddy test, visual rating on 0 to 100 scale (0 no effect, 100 complete control) after 13 to 15 days; for Plant response rating, Rice: Flood (flooded paddy test), 13 to 15 days; for Rice plant response rating: Flood, 31 g ai/ha, scale 0 to 100 (0 no effect, 100 complete control)
Method in brief: as §2

[10] = tested on: umbrella sedge (Cyperus difformis); assay: Test B flooded paddy test; settings: for Plant response rating, Flood, Sedge, Umbrella: 250 g ai/ha, flooded paddy test, visual rating on 0 to 100 scale (0 no effect, 100 complete control) after 13 to 15 days; for Plant response rating, Sedge, Umbrella: Flood (flooded paddy test), 13 to 15 days; for Sedge, Umbrella plant response rating: Flood, 31 g ai/ha, scale 0 to 100 (0 no effect, 100 complete control)
Method in brief: as §2

[11] = Postemergence, 125 g ai/ha, 0 to 100 scale where 0 is no effect and 100 is complete control
[12] = Postemergence, 500 g ai/ha, visual injury, 0 to 100 scale (0 no effect, 100 complete control), approx. ten days
[13] = Preemergence, 125 g ai/ha, 0 to 100 scale, 0 = no effect, 100 = complete control
[14] = Preemergence, 500 g ai/ha, 0 to 100 scale, 0 = no effect, 100 = complete control
[15] = 62 g ai/ha, scale of 0 to 100 where 0 is no effect and 100 is complete control
[16] = 125 g ai/ha, scale 0 to 100, 0 is no effect, 100 is complete control
[17] = Preemergence, 125 g ai/ha, 0 to 100 scale where 0 is no effect and 100 is complete control, approximately ten days
[18] = Postemergence, 125 g ai/ha, visual injury, 0 to 100 scale (0 no effect, 100 complete control), approx. ten days
[19] = Postemergence, 500 g ai/ha, 0 to 100 scale, 0 = no effect, 100 = complete control, approx. ten days
[20] = Preemergence, 500 g ai/ha, visual injury, 0 to 100 scale (0 no effect, 100 complete control), approx. ten days

CCCn1c(-c2cccs2)ncc(C(=O)c2cnn(CC)c2O)c1=O [Compound 221]
Plant response rating, Barnyardgrass [1, 11]: 10
Barnyardgrass plant response rating [1, 12]: 20
Plant response rating, Barnyardgrass [1, 13]: 0
Plant response rating, Barnyardgrass [1, 14]: 0
Plant response rating, Corn (corn (Zea mays); [11]): 0
Corn plant response rating (corn (Zea mays); [12]): 20
Plant response rating, Corn (corn (Zea mays); [13]): 0
Plant response rating, Corn (corn (Zea mays); [14]): 0
Plant response rating, Foxtail, Giant [2, 11]: 0
Foxtail, Giant plant response rating [2, 12]: 10
Plant response rating, Foxtail, Giant [2, 13]: 0
Plant response rating, Foxtail, Giant [2, 14]: 10
Plant response rating, Crabgrass, Large [3, 11]: 10
Crabgrass, Large plant response rating [3, 12]: 20
Plant response rating, Crabgrass, Large [3, 13]: 0
Plant response rating, Crabgrass, Large [3, 14]: 10
Plant response rating, Morningglory [4, 11]: 10
Morningglory plant response rating [4, 12]: 20
Plant response rating, Morningglory [4, 13]: 0
Plant response rating, Morningglory [4, 14]: 0
Plant response rating, Pigweed [5, 11]: 40
Pigweed plant response rating [5, 12]: 70
Plant response rating, Pigweed [5, 13]: 0
Plant response rating, Pigweed [5, 14]: 60
Plant response rating, Velvetleaf [6, 11]: 80
Velvetleaf plant response rating [6, 12]: 80
Plant response rating, Velvetleaf [6, 13]: 20
Plant response rating, Velvetleaf [6, 14]: 30
Plant response rating, Wheat [7, 11]: 0
Wheat plant response rating [7, 12]: 0
Plant response rating, Wheat [7, 13]: 0
Plant response rating, Wheat [7, 14]: 0
Plant response rating, Flood, Barnyardgrass [8]: 20
Plant response rating, Barnyardgrass [8, 15]: 0
Plant response rating, Barnyardgrass [8, 16]: 0
Barnyardgrass plant response rating [8]: 0
Plant response rating, Flood, Ducksalad [9]: 70
Plant response rating, Ducksalad [9, 15]: 65
Plant response rating, Ducksalad [9, 16]: 70
Ducksalad plant response rating [9]: 20
Plant response rating, Flood, Rice (rice (Oryza sativa)): 15
Plant response rating, Rice (rice (Oryza sativa); [15]): 0
Plant response rating, Rice (rice (Oryza sativa); [16]): 0
Rice plant response rating (rice (Oryza sativa)): 0
Plant response rating, Flood, Sedge, Umbrella [10]: 75
Plant response rating, Sedge, Umbrella [10, 15]: 60
Plant response rating, Sedge, Umbrella [10, 16]: 75
Sedge, Umbrella plant response rating [10]: 0

O=C(C1=C(O)C2CCC(C2)C1=O)c1cnc(-c2ccccc2)n(C2CCCCCC2)c1=O (centres unmarked) [Compound 253]
Plant response rating, Barnyardgrass [1, 11]: 100
Barnyardgrass plant response rating [1, 12]: 100
Plant response rating, Barnyardgrass [1, 17]: 10
Plant response rating, Barnyardgrass [1, 14]: 20
Plant response rating, Corn (corn (Zea mays); [11]): 10
Corn plant response rating (corn (Zea mays); [12]): 40
Plant response rating, Corn (corn (Zea mays); [17]): 0
Plant response rating, Foxtail, Giant [2, 18]: 60
Foxtail, Giant plant response rating [2, 12]: 100
Plant response rating, Foxtail, Giant [2, 17]: 20
Plant response rating, Foxtail, Giant [2, 14]: 70
Plant response rating, Crabgrass, Large [3, 11]: 80
Crabgrass, Large plant response rating [3, 12]: 100
Plant response rating, Crabgrass, Large [3, 17]: 30
Plant response rating, Crabgrass, Large [3, 14]: 80
Plant response rating, Morningglory [4, 18]: 100
Morningglory plant response rating [4, 12]: 100
Plant response rating, Morningglory [4, 17]: 40
Plant response rating, Morningglory [4, 14]: 70
Plant response rating, Pigweed [5, 18]: 90
Pigweed plant response rating [5, 12]: 100
Plant response rating, Pigweed [5, 17]: 20
Plant response rating, Pigweed [5, 14]: 80
Plant response rating, Velvetleaf [6, 18]: 100
Velvetleaf plant response rating [6, 12]: 100
Plant response rating, Velvetleaf [6, 17]: 50
Plant response rating, Velvetleaf [6, 14]: 90
Plant response rating, Wheat [7, 18]: 0
Wheat plant response rating [7, 12]: 20
Plant response rating, Wheat [7, 17]: 0
Plant response rating, Wheat [7, 14]: 20
Plant response rating, Flood, Barnyardgrass [8]: 20
Plant response rating, Barnyardgrass [8, 15]: 0
Plant response rating, Barnyardgrass [8, 16]: 0
Barnyardgrass plant response rating [8]: 0
Plant response rating, Flood, Ducksalad [9]: 90
Plant response rating, Ducksalad [9, 15]: 75
Plant response rating, Ducksalad [9, 16]: 85
Ducksalad plant response rating [9]: 60
Plant response rating, Flood, Rice (rice (Oryza sativa)): 20
Plant response rating, Rice (rice (Oryza sativa); [15]): 0
Plant response rating, Rice (rice (Oryza sativa); [16]): 0
Rice plant response rating (rice (Oryza sativa)): 0
Plant response rating, Flood, Sedge, Umbrella [10]: 85
Plant response rating, Sedge, Umbrella [10, 15]: 65
Plant response rating, Sedge, Umbrella [10, 16]: 75
Sedge, Umbrella plant response rating [10]: 60

O=C(C1=C(O)C2CCC(C2)C1=O)c1cnc(-c2cc(F)c(F)c(F)c2)n(C2CCCCC2)c1=O (centres unmarked) [Compound 251]
Plant response rating, Barnyardgrass [1, 11]: 80
Barnyardgrass plant response rating [1, 12]: 100
Plant response rating, Barnyardgrass [1, 17]: 0
Plant response rating, Barnyardgrass [1, 14]: 20
Plant response rating, Corn (corn (Zea mays); [11]): 0
Corn plant response rating (corn (Zea mays); [12]): 20
Plant response rating, Corn (corn (Zea mays); [17]): 0
Plant response rating, Corn (corn (Zea mays); [14]): 0
Plant response rating, Foxtail, Giant [2, 18]: 50
Foxtail, Giant plant response rating [2, 12]: 90
Plant response rating, Foxtail, Giant [2, 17]: 10
Plant response rating, Foxtail, Giant [2, 14]: 40
Plant response rating, Crabgrass, Large [3, 11]: 50
Crabgrass, Large plant response rating [3, 12]: 90
Plant response rating, Crabgrass, Large [3, 17]: 20
Plant response rating, Crabgrass, Large [3, 14]: 80
Plant response rating, Morningglory [4, 18]: 100
Morningglory plant response rating [4, 12]: 100
Plant response rating, Morningglory [4, 17]: 0
Plant response rating, Morningglory [4, 14]: 40
Plant response rating, Pigweed [5, 18]: 70
Pigweed plant response rating [5, 12]: 80
Plant response rating, Pigweed [5, 17]: 0
Plant response rating, Pigweed [5, 14]: 60
Plant response rating, Velvetleaf [6, 18]: 100
Velvetleaf plant response rating [6, 12]: 100
Plant response rating, Velvetleaf [6, 17]: 50
Plant response rating, Velvetleaf [6, 14]: 70
Plant response rating, Wheat [7, 18]: 0
Wheat plant response rating [7, 12]: 10
Plant response rating, Wheat [7, 17]: 0
Plant response rating, Wheat [7, 14]: 0
Plant response rating, Flood, Barnyardgrass [8]: 20
Plant response rating, Barnyardgrass [8, 15]: 0
Plant response rating, Barnyardgrass [8, 16]: 0
Barnyardgrass plant response rating [8]: 0
Plant response rating, Flood, Ducksalad [9]: 80
Plant response rating, Ducksalad [9, 15]: 0
Plant response rating, Ducksalad [9, 16]: 50
Ducksalad plant response rating [9]: 0
Plant response rating, Flood, Rice (rice (Oryza sativa)): 10
Plant response rating, Rice (rice (Oryza sativa); [15]): 0
Plant response rating, Rice (rice (Oryza sativa); [16]): 0
Rice plant response rating (rice (Oryza sativa)): 0
Plant response rating, Flood, Sedge, Umbrella [10]: 75
Plant response rating, Sedge, Umbrella [10, 15]: 50
Plant response rating, Sedge, Umbrella [10, 16]: 65
Sedge, Umbrella plant response rating [10]: 0

Cc1cc(-n2c(-c3cccc(Cl)c3)ncc(C(=O)C3=C(O)CCCC3=O)c2=O)ccc1F [Compound 133]
Plant response rating, Barnyardgrass [1, 11]: 20
Plant response rating, Barnyardgrass [1, 19]: 90
Plant response rating, Barnyardgrass [1, 13]: 10
Plant response rating, Barnyardgrass [1, 20]: 100
Plant response rating, Corn (corn (Zea mays); [11]): 10
Plant response rating, Corn (corn (Zea mays); [19]): 40
Plant response rating, Corn (corn (Zea mays); [13]): 0
Plant response rating, Corn (corn (Zea mays); [20]): 20
Plant response rating, Foxtail, Giant [2, 11]: 20
Plant response rating, Foxtail, Giant [2, 19]: 90
Plant response rating, Foxtail, Giant [2, 13]: 40
Plant response rating, Foxtail, Giant [2, 20]: 80
Plant response rating, Crabgrass, Large [3, 11]: 40
Plant response rating, Crabgrass, Large [3, 19]: 100
Plant response rating, Crabgrass, Large [3, 13]: 50
Plant response rating, Crabgrass, Large [3, 20]: 100
Plant response rating, Morningglory [4, 11]: 40
Plant response rating, Morningglory [4, 19]: 70
Plant response rating, Morningglory [4, 13]: 0
Plant response rating, Morningglory [4, 20]: 0
Plant response rating, Pigweed [5, 11]: 80
Plant response rating, Pigweed [5, 19]: 100
Plant response rating, Pigweed [5, 13]: 40
Plant response rating, Pigweed [5, 20]: 100
Plant response rating, Velvetleaf [6, 11]: 100
Plant response rating, Velvetleaf [6, 19]: 100
Plant response rating, Velvetleaf [6, 13]: 50
Plant response rating, Velvetleaf [6, 20]: 100
Plant response rating, Wheat [7, 11]: 20
Plant response rating, Wheat [7, 19]: 40
Plant response rating, Wheat [7, 13]: 0
Plant response rating, Wheat [7, 20]: 20
Plant response rating, Flood, Barnyardgrass [8]: 0
Plant response rating, Barnyardgrass [8, 15]: 0
Plant response rating, Barnyardgrass [8, 16]: 0
Barnyardgrass plant response rating [8]: 0
Plant response rating, Flood, Ducksalad [9]: 100
Plant response rating, Ducksalad [9, 15]: 60
Plant response rating, Ducksalad [9, 16]: 100
Ducksalad plant response rating [9]: 60
Plant response rating, Flood, Rice (rice (Oryza sativa)): 0
Plant response rating, Rice (rice (Oryza sativa); [15]): 0
Plant response rating, Rice (rice (Oryza sativa); [16]): 0
Rice plant response rating (rice (Oryza sativa)): 0
Plant response rating, Flood, Sedge, Umbrella [10]: 100
Plant response rating, Sedge, Umbrella [10, 15]: 60
Plant response rating, Sedge, Umbrella [10, 16]: 95
Sedge, Umbrella plant response rating [10]: 0

Source: US8952024B2, “Herbicidal pyrimidone derivatives” (E I du Pont de Nemours and Company, priority 2009, dated 2015)
